From patent US5527820A, “Antibiotics having immunosuppressive activity, delaminomycins and processes for the production of the same” (priority 1992, dated 1996)
In brackets after ≈: the same amount, converted by molar mass.

Columns and labels:
Xanthomonas citri = assay: MIC, agar plate dilution method; type: cell-based; conditions: 27° C., 42 hours, nutrient agar containing glucose
Experimental: (§1) Delaminomycins A, B, C, A2, B2 and C2 according to this invention further have an antibacterial activity against a variety of bacteria. The minimum growth inhibitory concentrations (MIC) (μg/ml) of the novel antibiotics of this invention on various bacteria and fungi as measured by the agar plate dilution method are shown in Table 5a, Table 5b, Table 5c and Table 5d below.
(§2) Evaluated after culturing at 27° C. for 42 hours in nutrient agar
(§3) medium containing glucose.

Cochliobolus miyabeanus = assay: MIC, agar plate dilution method; type: cell-based; conditions: Bipolaris oryzae; 27° C., 42 hours, nutrient agar containing glucose
Experimental: as §1, §2, §3

Mouse leukemia P388D1 = assay: Inhibitory activity on proliferation of cancer cells; type: cell-based
Solubility = conditions: result in words
[1] = system: Trichophyton asteroides 429; assay: MIC, agar plate dilution method; type: cell-based; conditions: 27° C., 42 hours, nutrient agar containing glucose
Human Lymphoma Jurkat = assay: Inhibitory activity on proliferation of cancer cells; type: cell-based
[2] = system: Saccharomyces cerevisiae F-7; assay: MIC, agar plate dilution method; type: cell-based; conditions: F7, 27° C., 42 hours, nutrient agar containing glucose
Candida tropicalis F-1 = assay: MIC, agar plate dilution method; type: cell-based; conditions: F1, 27° C., 42 hours, nutrient agar containing glucose
[3] = system: Cryptococcus neoformans F-10; assay: MIC, agar plate dilution method; type: cell-based; conditions: F10, 27° C., 42 hours, nutrient agar containing glucose
Piricularia oryzae = assay: microbe, parasite or virus in culture; type: cell-based; conditions: 42 h
Mouse leukemia EL-4 = assay: Inhibitory activity on proliferation of cancer cells; type: cell-based; conditions: EL4
Candida krusei F-5 = assay: MIC, agar plate dilution method; type: cell-based; conditions: Pichia kudriavzevii, F5; 27° C., 42 hours, nutrient agar containing glucose
Candida albicans 3147 = assay: MIC, agar plate dilution method; type: cell-based; conditions: 27° C., 42 hours, nutrient agar containing glucose
[4] = system: Candida pseudotropicalis F-2; assay: MIC, agar plate dilution method; type: cell-based; conditions: Kluyveromyces marxianus, F2; 27° C., 42 hours, nutrient agar containing glucose
[5] = system: Trichophyton mentagrophytes F-15 (833); assay: MIC, agar plate dilution method; type: cell-based; conditions: 27° C., 42 hours, nutrient agar containing glucose
Pellicularia sasakii = assay: MIC, agar plate dilution method; type: cell-based; conditions: 27° C., 42 hours, nutrient agar containing glucose
[6] = Absorption into the digestive tracts on oral administration; conditions: result in words
Gram-positive bacteria = assay: Antibacterial activity to Gram-positive bacteria; type: cell-based; conditions: result in words
Description: as §1

[7] = system: nylon wool-passed cells of spleen cells (responder cell; T cells); assay: Inhibitory activity to the mixed lymphocyte culture reaction; type: cell-based, rat (Fischer F344 responder; WKY stimulator)
Mouse melanoma B-16 = assay: Inhibitory activity on proliferation of cancer cells; type: cell-based; conditions: B16
Candida Yu-1200 = assay: MIC, agar plate dilution method; type: cell-based; conditions: YU1200, 27° C., 42 hours, nutrient agar containing glucose
[8] = Acute toxicity (LD50) in ICR mice; conditions: mouse, in vivo, ip, intraperitoneally
Aspergillus niger F-16 = assay: MIC, agar plate dilution method; type: cell-based; conditions: F16, 27° C., 42 hours, nutrient agar containing glucose
Mouse leukemia L-1210 = assay: Inhibitory activity on proliferation of cancer cells; type: cell-based; conditions: L1210
[9] = system: spleen cells (T cells activated by Concanavalin A); assay: Inhibitory activity against blastogenesis and proliferation of spleen cells caused by mitogen (Con A); type: cell-based, mouse (CDF1)
[10] = system: delayed-type hypersensitivity (DTH); assay: Suppressive effect on delayed-type hypersensitivity (DTH) in mouse, intraperitoneal; type: in vivo, mouse (CDF1); conditions: intraperitoneal once a day, 0-4th day
Description: Suppressive effect of delaminomycins on delayed-type hypersensitivity (DTH) in mouse
CDF1 mice were immunized by intravenously injecting sheep red blood cells (10^5 cells/mouse). On the 4th day after the immunization, sheep red blood cells (10^8 cells/mouse) were subcutaneously injected into the footpad of mice for the elicitation to cause a delayed-type hypersensitivity (DTH). Test compound was intraperitoneally administered to the mice once a day from the 0th day to 4th day after the immunization. On the 5th day after the elicitation the thickness of the mouse footpad was measured to estimate the suppressive effect of the test compound on the DTH response. The suppressive effect of the test compound was evaluated in terms of the inhibition rate (%) as calculated according to the following equation:
Inhibition rate (%)=100-(T/C×100)
wherein T denotes the thickness of the footpad when administering the test compound, but C denotes the thickness of the footpad when administering no test compound.

CCC(O)C(C)/C=C/C=C/C(O)CC1C=CC2CC(C)CC(C)C2C1(C)C(=O)C1C(=O)NC(O)C1=O (stereo not drawn) [Delaminomycin A]
MIC (Xanthomonas citri): > 100 µg/mL | MIC (Cochliobolus miyabeanus): > 100 µg/mL | IC50 (Mouse leukemia P388D1): 14 µg/mL (≈ 27.9 µM) | Solubility (Solubility; various solvents): soluble in methanol but slightly soluble or insoluble in water, acetone, ethyl ether and n-hexane | Solubility in water (Solubility; water): barely soluble in water | MIC [1]: > 100 µg/mL | IC50 (Human Lymphoma Jurkat): 3.6 µg/mL (≈ 7.18 µM) | MIC [2]: > 100 µg/mL | MIC (Candida tropicalis F-1): > 100 µg/mL | MIC [3]: > 100 µg/mL | MIC (Piricularia oryzae): > 100 µg/mL | IC50 (Mouse leukemia EL-4): 17.9 µg/mL (≈ 35.7 µM) | MIC (Candida krusei F-5): > 100 µg/mL | MIC (Candida albicans 3147): > 100 µg/mL | MIC [4]: > 100 µg/mL | MIC [5]: > 100 µg/mL | MIC (Pellicularia sasakii): > 100 µg/mL | absorption into the digestive tracts / oral absorption [6]: hardly absorbed into the digestive tracts | antibacterial activity to Gram-positive bacteria (Gram-positive bacteria): antibacterial activity to Gram-positive bacteria | inhibition at 0.1 µg/mL ([7]; Rattus norvegicus, T-cell, 0.10 μg/ml test compound, read-out: Inhibition rate): 17.6% | inhibition at 0.39 µg/mL ([7]; Rattus norvegicus, T-cell, 0.39 μg/ml test compound, read-out: Inhibition rate): 32.8% | inhibition at 1.56 µg/mL ([7]; Rattus norvegicus, T-cell, 1.56 μg/ml test compound, read-out: Inhibition rate): 17.5% | inhibition at 6.25 µg/mL ([7]; Rattus norvegicus, T-cell, 6.25 μg/ml test compound, read-out: Inhibition rate): 55.3% | inhibition at 25 µg/mL ([7]; Rattus norvegicus, T-cell, 25 μg/ml test compound, read-out: Inhibition rate): 95% | inhibition at 100 µg/mL ([7]; Rattus norvegicus, T-cell, 100 μg/ml test compound, read-out: Inhibition rate): 96.4% | IC50 ([7]; Rattus norvegicus, T-cell, 120 hours, 3H-thymidine incorporation, read-out: IC50 (inhibition of mixed lymphocyte culture reaction)): 8.6 µg/mL (≈ 17.1 µM) | activity to inhibit the proliferation of the T cells (responder cell) in mixed lymphocyte culture reaction ([7]; in vitro, result in words): have an activity to inhibit the reaction of proliferation of the T cells | IC50 (Mouse melanoma B-16): 21.1 µg/mL (≈ 42.1 µM) | MIC (Candida Yu-1200): > 100 µg/mL | LD50 [8]: > 500 mg/kg | MIC (Aspergillus niger F-16): > 100 µg/mL | IC50 (Mouse leukemia L-1210): > 100 µg/mL | IC50 ([9]; Mus musculus, T-cell, read-out: IC50 (inhibition of blastogenesis and proliferation of spleen lymphocyte caused by Con A)): 17.5 µg/mL (≈ 34.9 µM) | inhibition at 1.56 µg/mL ([9]; Mus musculus, T-cell, 1.56 μg/ml test compound, read-out: Inhibition rate): 0% | inhibition at 6.25 µg/mL ([9]; Mus musculus, T-cell, 6.25 μg/ml test compound, read-out: Inhibition rate): 31% | inhibition at 25 µg/mL ([9]; Mus musculus, T-cell, 25 μg/ml test compound, read-out: Inhibition rate): 57% | inhibition at 100 µg/mL ([9]; Mus musculus, T-cell, 100 μg/ml test compound, read-out: Inhibition rate): 88% | activity inhibitory to the reaction of proliferation of mouse spleen cells activated with Concanavalin A ([9]; in vitro, result in words): exhibit an activity inhibitory to the reaction of proliferation of mouse spleen cells | Inhibition rate (DTH footpad thickness) ([10]; 15.6 μg/mouse): 0.1% | Inhibition rate (DTH footpad thickness) ([10]; 62.5 μg/mouse): 52.8% | Inhibition rate (DTH footpad thickness) ([10]; 250 μg/mouse): 85.3% | Inhibition rate (DTH footpad thickness) ([10]; 1000 μg/mouse): 99.2%
